{"source": "patent EP3118613B1", "about": "“ELECTRIC COMPONENT WITH ORGANIC PART” (ACREO SWEDISH ICT AB, priority 2015, dated 2017)", "key": {"[1]": {"assay": "Cyclic voltammetry, onset potential of polymerization", "assay_type": "physicochemical", "settings": "1 mg/ml in 0.01 M NaCl, ITO working electrode, Ag/AgCl reference, 50 mV/s", "procedure": "In order to define the on-set potential of the polymerization of the trimer a three electrode setup was used. The working electrode is an ITO coated glass, the counter electrode is a Platinum sheet and the reference electrode is an Ag/AgCl saturated electrode. The electrolyte was 1mg/ml of compound 1 in 0.01M NaCl. The active area of the ITO was 21mm x 8mm. A cyclic voltametry was performed in order to define the onset potential. The potential was applied between the working and the reference electrode while the current was measured between the working and the counter electrode. The potential was scanned from +0.5V to -0.5V, starting from 0V with a scan rate of 50mV/s. During the first scan current increases at around +0.3V defining the onset potential of the polymerization were observed. The polymer is deposited on the active area of the ITO coated glass.\nIn order to define the on-set potential of the polymerization of the trimer we used a three electrode setup. The working electrode is an ITO coated glass, the counter electrode is a Platinum sheet and the reference electrode is a Ag/AgCl saturated electrode. The electrolyte was 1 mg/ml of compound 1 in 0.01 M NaCl. The active area of the ITO was 21 mm x 8 mm. […] The potential was applied between the working and the reference electrode while the current was measured between the working and the counter electrode. […]"}, "[2]": {"assay": "Two-probe conductivity measurement of conducting wires in rose xylem", "assay_type": "physicochemical, Rosa floribunda", "settings": "xylem wires in rose stem, two Au probes", "procedure": "We chose to use cuttings of Rosa floribunda (garden rose) as our model plant system. The lower part of a rose stem was cut and the fresh cross section was immersed in an aqueous PEDOT-S:H solution for 24-48 h (Fig. 7A), during which time the PEDOT-S:H solution was taken up into the xylem vascular channel and transported apically. The rose was taken from the solution and rinsed in water. The outer bark, cortex and phloem of the bottom part of the stem were then gently peeled off, exposing dark continuous lines along individual 20-100 µm wide xylem channels (Fig. 7B-D). These \"wires\" extended more than 5 cm along the stem. […] The conductivity of PEDOT-S:H wires was measured using two Au probes applied into individual PEDOT-S:H xylem wires along the stem (Fig. 7D). From the linear fit of resistance versus distance between the contacts, we found electrical conductivity reading 0.13 S/cm with contact resistance ∼10 kΩ (Fig. 7E). […]\nFigure 29A is an external views of a plant part, in this case the steam where the epidermis has been peeled off, also showing two gold plated microelectrodes 2300 used to contact and penetrate a surface of the stem in order to reach the xylem channel. […] This is the currently highest measured electronic conductivity in a plant. […]"}, "[3]": {"assay": "Conductivity of ETE-S polymerized in air", "assay_type": "physicochemical", "procedure": "The conductivity of ETE-S based wires was measured using two Au probes applied into individual xylem wires along the stem (Fig. 38) and found to be equal to 7.25 +- 3.38 S/cm (n=17). […] The high conductivity was retained for cm scale wires showing that good interconnectivity is achieved along the xylem wires. […] The conductivity of 10mg/ml solution is 10^-5 S/cm while for 50mg/ml is on the order of 10^-3S/CM. In the plants we typically administrate 5ml solution of 1mg/ml concentration. An estimation of the total volume of the xylem tubing in a rose cutting of 15cm is 0.15ml taking into account an average diameter of xylem to be 20um. For this volume and since all the solution is taken up form the plant we end up with concentrations of the ETE-S molecule in the order of 30mg/ml. From microscopy images we see that approximately only 10% of the xylem is filled, while the majority of the rest is coated with the material and for that volume we have concentrations up to 300mg/ml. This high concentration in the plant allows the material to organize and polymerize in a way that creates highly conducting wires."}, "young bean plant": {"tested_on": "young bean plant", "assay": "Immersion of bean plant roots or stem in compound 1 solution, plant survival and growth", "assay_type": "in vivo", "settings": "roots or stem immersed in 1 mg/mL aqueous solution; replanted in gel", "procedure": "Figure 16A-E illustrates another experiment, with references to the alphabetical parts of figure in parenthesis. A young bean plant having a plurality of roots was used as a test specimen. In (A) the roots of the young bean plant were planted in a plastic container having Seedhru® gel as a soil substitute.. Two of the roots of the bean plant were immersed in a vial 1600 (B) containing aqueous solution of compound 1 (1 mg/mL). […] As soon as or shortly after the two roots were immersed the color of the compound 1 solution shifted from white to pink (D) and then back to white again. The reason of the color shift is still being investigated. […] After 24 hours one of the roots was removed from the compound 1 solution and can be seen in (E) and in figure 17. The other root was left immersed in the compound 1 solution for 24 more hours (total 48hours). After 48 hours the second root was cut of the bean plant and can be seen in figure 18.. Note that the part of the root which was immersed in compound 1 is now coated with polymerized compound 1 as indicated by the darker color. […]"}, "[4]": {"assay": "Xylem supercapacitor, specific capacitance of xylem wire electrodes", "assay_type": "physicochemical, rose", "settings": "from slope of capacitance per area vs length of xylem wire", "excerpt": "Plant's anatomy upon functionalization with the conducting material provides an ideal architecture for developing supercapacitors in vivo. The long-range conducting xylem wires are parallel and electronically isolated to each other while are surrounded with cellular domains and extracellular space rich in electrolyte. Therefore we explored the charge storage capacity of the xylem wires. Two parallel xylem wires served as the electrodes (capacitor plates) and the plant tissue in between them the spacer. Two Au probes defined the electrodes contacts. In the schematic of Fig. 36.a we show the general structure and the wiring of a supercapacitor along with the optical micrograph of the corresponding supercapacitor in the plant Fig. 36.b.\nFrom the slope of the discharging curve we calculate the capacitance of the device equal to 1.3 10^-4 F The capacitive behavior of the material is indicated and by the square shaped voltamogramm Fig. 43 in the potential range of -0.5V - 0.5V. In order to extract the specific capacitance of the xylem electrodes we measure devices of various dimensions. Xylem wires have typically diameter of 30-50um and lengths in the cm scale. In Fig. 36.d. we show the capacitance per area (diameter of xylem wire) vs the length. From the slope we calculated the specific capacitance and found it equal to 20F/cm3, a value in the typical range for conducting polymers. […]"}}, "note": "Entries after “also recorded” stand apart in the source; their conditions may differ.", "data": [{"molecule": "c1scc2c1OCCO2", "note": "[EDOT]", "values": [{"measurement": "onset potential of the polymerization", "setting": "[1]", "result": 1.1, "unit": "V"}]}, {"molecule": "exo-EDOT-Thiophene-EDOT-alkoxylfonate [compound 1]", "values": [{"measurement": "electrical conductivity", "setting": "[2]", "result": "approximately 1.5 S/cm"}, {"measurement": "conductivity", "setting": "[3]; 10mg/ml solution", "result": "10^-5 S/cm"}, {"measurement": "conductivity", "setting": "[3]; 50mg/ml solution", "result": "~10^-3 S/CM"}, {"measurement": "growth or survival of the plant", "setting": "young bean plant", "result": "survives for at least two weeks; also recorded: showed further growth"}, {"measurement": "specific capacitance", "setting": "[4]", "result": 20, "unit": "F/cm3"}]}]}
